Data reported in US8575091B1, “Amylin analogues and pharmaceutical compositions thereof” (Novo Nordisk A/S, priority 2012, dated 2013).
Read-outs that look alike come from different tables or passages of the source. Numbered stars: 1 amine (or outer) side, 2 acyl side, 3 side chain; on linkers, the order of the positions; unused ones are H or OH. Bridge positions count the residues as written; N and C are the ends. Side chains are listed from the residue outwards. Peptide text beside a SMILES is read from it. * marks the point of attachment. C20 diacid = O=C(O)CCCCCCCCCCCCCCCCCCC(=O)*; γGlu = O=C(O)[C@H](CCC(=O)[*:2])N[*:1]

Key:
[1] = molecular target: T1, human calcitonin receptor (Homo sapiens, UniProt P30988); experiment: Assay (VII) binding to the human calcitonin receptor (SPA, 125I-Calcitonin); settings: read-out: hCTR bind IC50;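 also: cell membranes coupled to SPA beads, competitive displacement read by scintillation counting, IC50 derived from a one-site competition fit as a measure of receptor affinity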
T1 construct: expressed in transfected cells
T1 sequence (P30988 25-474): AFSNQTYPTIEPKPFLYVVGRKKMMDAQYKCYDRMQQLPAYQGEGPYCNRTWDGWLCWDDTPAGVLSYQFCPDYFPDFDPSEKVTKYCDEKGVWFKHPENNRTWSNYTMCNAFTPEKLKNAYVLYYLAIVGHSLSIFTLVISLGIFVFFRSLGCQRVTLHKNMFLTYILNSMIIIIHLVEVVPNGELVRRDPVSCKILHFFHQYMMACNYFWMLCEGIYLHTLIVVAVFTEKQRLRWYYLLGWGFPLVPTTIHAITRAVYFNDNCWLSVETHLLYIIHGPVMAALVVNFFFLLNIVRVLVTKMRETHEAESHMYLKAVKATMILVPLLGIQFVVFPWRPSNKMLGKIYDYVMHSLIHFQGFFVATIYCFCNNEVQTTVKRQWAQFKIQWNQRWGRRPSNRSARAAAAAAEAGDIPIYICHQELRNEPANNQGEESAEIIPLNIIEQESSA

[2] = molecular target: T2, human amylin receptor (amylin 3(a) receptor: human calcitonin receptor + RAMP-3) (Homo sapiens, UniProt O60896+P30988); experiment: Assay (II)a functional assay, human amylin receptor (CRE luciferase, BHK cells); assay type: cell-based; settings: for EC50: read-out: hAmylin-R funct. EC50
T2 construct: expressed in transfected cells
T2 sequence (P30988 25-474): T1 sequence (P30988 25-474)
T2 sequence (O60896 24-148 partner): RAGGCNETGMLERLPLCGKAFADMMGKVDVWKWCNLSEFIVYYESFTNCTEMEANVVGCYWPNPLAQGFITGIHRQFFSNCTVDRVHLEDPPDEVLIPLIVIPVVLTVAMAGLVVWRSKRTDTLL

[3] = molecular target: T1, human calcitonin receptor; experiment: Assay (II)a functional assay, human calcitonin receptor (CRE luciferase, BHK cells);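 also: luminescence from a CRE-driven luciferase reporter, read by single photon counting after cells were exposed to test samples for 3 h at 37 °C under 5% CO2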; assay type: cell-based; settings: read-out: hCTR funct. EC50
human amylin receptor = molecular target: T3, human amylin receptor (Homo sapiens, UniProt O60896+P30988); experiment: Assay (V) binding to the human amylin receptor (SPA, 125I-rat amylin); settings: human amylin receptor membranes, SPA; read-out: hAmylin-R bind IC50
T3 construct: expressed in transfected cells
T3 sequence (P30988 25-474): T1 sequence (P30988 25-474)
T3 sequence (O60896 24-148 partner): T2 sequence (O60896 24-148 partner)
How it was run: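 SPA competition binding on membranes from Amylin 3(a)/CRE-luc cells, 35 ng/μL membranes with 0.05 mg/well beads. Buffer 50 mM Hepes pH 7.4, 1 mM CaCl2, 5 mM MgCl2, 0.1% OA, 0.02% Tween20. IC50 from one-site competition fit as affinity measure.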

[4] = Table 6, human functional selectivity (hCTR EC50 / hAmylin-R EC50)
[5] = Table 6a, human functional selectivity (hCTR EC50 / hAmylin-R EC50), at least 5
[6] = Table 6j, hCTR funct. EC50 / hAmylin-R funct. EC50
[7] = Table 6k, hCTR funct. EC50 / hAmylin-R funct. EC50
[8] = functional assay, human amylin receptor

Row | SMILES | IC50 [1] [nM] | Ratio hCT/hAmylin funct. [2, 4] | Ratio hCT/hAmylin funct. [2, 5] | Ratio hCT/hAmylin funct. [2, 6] | Ratio hCT/hAmylin funct. [2, 7] | EC50 [2, 8] [nM] | EC50 [3] [nM] | IC50 (human amylin receptor) [nM] | Ratio hCT/hAmylin funct. ([2]; Table 6i, hCTR funct. EC50 / hAmylin-R funct. EC50) | EC50 ([2]; Table 6i, human amylin receptor functional) [nM] | EC50 ([2]; Table 6j, human amylin receptor functional) [nM]
1 | CC[C@H](C)[C@H](NC(=O)[C@H](C)NC(=O)CNC(=O)[C@H](Cc1ccccc1)NC(=O)[C@H](CC(N)=O)NC(=O)[C@@H]1CCCN1C(=O)[C@H](CO)NC(=O)[C@H](CO)NC(=O)[C@H](Cc1c[nH]cn1)NC(=O)[C@H](CCCNC(=N)N)NC(=O)[C@H](CC(C)C)NC(=O)[C@H](Cc1ccccc1)NC(=O)[C@H](Cc1c[nH]cn1)NC(=O)[C@H](C)NC(=O)[C@H](CC(C)C)NC(=O)[C@H](CCCNC(=N)N)NC(=O)[C@H](CCC(N)=O)NC(=O)[C@@H](NC(=O)[C@H](C)NC(=O)[C@@H]1CSSC[C@H](NC(=O)[C@H](CCCNC(=N)N)NC(=O)CNC(=O)CC[C@H](NC(=O)CCCCCCCCCCCCCCCCCCC(=O)O)C(=O)O)C(=O)N[C@@H](CC(N)=O)C(=O)N[C@@H]([C@@H](C)O)C(=O)N[C@@H](C)C(=O)N[C@@H]([C@@H](C)O)C(=O)N1)[C@@H](C)O)C(=O)N1CCC[C@H]1C(=O)N[C@@H](CO)C(=O)N[C@@H](CO)C(=O)N[C@H](C(=O)N[C@@H](CC(N)=O)C(=O)N[C@H](C(=O)NCC(=O)N[C@@H](CO)C(=O)N[C@@H](CC(N)=O)C(=O)N[C@H](C(=O)N[C@@H](Cc1ccc(O)cc1)C(N)=O)[C@@H](C)O)C(C)C)[C@@H](C)O [Example 99] ({C20 diacid-γGlu}-GRCNTATCATQRLAHFLRHSSPNFGAIPSSTNVGSNTY-NH2; disulfide 3-8) | 35 | 10.0 | 10.0 | 10.0 | 10.0 | 0.082 | 0.818 | 0.348 | – | – | –
2 | CC[C@H](C)[C@H](NC(=O)[C@H](C)NC(=O)CNC(=O)[C@H](Cc1ccccc1)NC(=O)[C@H](CC(N)=O)NC(=O)[C@@H]1CCCN1C(=O)[C@H](CO)NC(=O)[C@H](CO)NC(=O)[C@H](Cc1c[nH]cn1)NC(=O)[C@H](CCCNC(=N)N)NC(=O)[C@H](CC(C)C)NC(=O)[C@H](Cc1ccccc1)NC(=O)[C@H](Cc1c[nH]cn1)NC(=O)[C@H](C)NC(=O)[C@H](CC(C)C)NC(=O)[C@H](CCCNC(=N)N)NC(=O)[C@H](CCC(N)=O)NC(=O)[C@@H](NC(=O)[C@H](C)NC(=O)[C@@H]1CSSC[C@H](NC(=O)[C@@H](N)CCCCNC(=O)CC[C@H](NC(=O)CCCCCCCCCCCCCCCCCCC(=O)O)C(=O)O)C(=O)N[C@@H](CC(N)=O)C(=O)N[C@@H]([C@@H](C)O)C(=O)N[C@@H](C)C(=O)N[C@@H]([C@@H](C)O)C(=O)N1)[C@@H](C)O)C(=O)N1CCC[C@H]1C(=O)N[C@@H](CO)C(=O)N[C@@H](CO)C(=O)N[C@H](C(=O)N1CCC[C@H]1C(=O)N[C@H](C(=O)NCC(=O)N1CCC[C@H]1C(=O)N[C@@H](CC(N)=O)C(=O)N[C@H](C(=O)N[C@@H](Cc1ccc(O)cc1)C(N)=O)[C@@H](C)O)C(C)C)[C@@H](C)O [Example 116] (H-K([γGlu-C20 diacid])CNTATCATQRLAHFLRHSSPNFGAIPSSTPVGPNTY-NH2; disulfide 2-7) | 2.04 | 4.9 | – | – | – | 0.071 | 0.345 | 0.082 | – | – | –
3 | CC[C@H](C)[C@H](NC(=O)[C@H](C)NC(=O)CNC(=O)[C@H](Cc1ccccc1)NC(=O)[C@H](CC(N)=O)NC(=O)[C@@H]1CCCN1C(=O)[C@H](CO)NC(=O)[C@H](CO)NC(=O)[C@H](Cc1c[nH]cn1)NC(=O)[C@H](CCCNC(=N)N)NC(=O)[C@H](CC(C)C)NC(=O)[C@H](Cc1ccccc1)NC(=O)[C@H](CC(=O)O)NC(=O)[C@H](C)NC(=O)[C@H](CC(C)C)NC(=O)[C@H](CCCNC(=N)N)NC(=O)[C@H](CCC(N)=O)NC(=O)[C@@H](NC(=O)[C@H](C)NC(=O)[C@@H]1CSSC[C@H](NC(=O)[C@@H](N)CCCCNC(=O)CC[C@H](NC(=O)CC[C@H](NC(=O)CCCCCCCCCCCCCCCCCCC(=O)O)C(=O)O)C(=O)O)C(=O)N[C@@H](CC(N)=O)C(=O)N[C@@H]([C@@H](C)O)C(=O)N[C@@H](C)C(=O)N[C@@H]([C@@H](C)O)C(=O)N1)[C@@H](C)O)C(=O)N1CCC[C@H]1C(=O)N[C@@H](CO)C(=O)N[C@@H](CO)C(=O)N[C@H](C(=O)N[C@@H](CC(N)=O)C(=O)N[C@H](C(=O)NCC(=O)N1CCC[C@H]1C(=O)N[C@@H](CCC(=O)O)C(=O)N[C@H](C(=O)N[C@@H](Cc1ccc(O)cc1)C(N)=O)[C@@H](C)O)C(C)C)[C@@H](C)O [Example 122] (H-K([γGlu-γGlu-C20 diacid])CNTATCATQRLADFLRHSSPNFGAIPSSTNVGPETY-NH2; disulfide 2-7) | 8.56 | 5.3 | 5.3 | 5.3 | 5.3 | 0.159 | 0.843 | 0.172 | – | – | –
4 | CC[C@H](C)[C@H](NC(=O)[C@H](C)NC(=O)CNC(=O)[C@H](Cc1ccccc1)NC(=O)[C@H](CC(N)=O)NC(=O)[C@@H]1CCCN1C(=O)[C@H](CO)NC(=O)[C@H](CO)NC(=O)[C@H](Cc1c[nH]cn1)NC(=O)[C@H](CCCNC(=N)N)NC(=O)[C@H](CC(C)C)NC(=O)[C@H](Cc1ccccc1)NC(=O)[C@H](CCC(=O)O)NC(=O)[C@H](C)NC(=O)[C@H](CC(C)C)NC(=O)[C@H](CCCNC(=N)N)NC(=O)[C@H](CCC(N)=O)NC(=O)[C@@H](NC(=O)[C@H](C)NC(=O)[C@@H]1CSSC[C@H](NC(=O)[C@H](CCCCN)NC(=O)CC[C@H](NC(=O)CCCCCCCCCCCCCCCCCCC(=O)O)C(=O)O)C(=O)N[C@@H](CC(N)=O)C(=O)N[C@@H]([C@@H](C)O)C(=O)N[C@@H](C)C(=O)N[C@@H]([C@@H](C)O)C(=O)N1)[C@@H](C)O)C(=O)N1CCC[C@H]1C(=O)N[C@@H](CO)C(=O)N[C@@H](CO)C(=O)N[C@H](C(=O)N[C@@H](CC(N)=O)C(=O)N[C@H](C(=O)NCC(=O)N[C@@H](CO)C(=O)N[C@@H](CCCNC(=N)N)C(=O)N[C@H](C(=O)N[C@@H](Cc1ccc(O)cc1)C(N)=O)[C@@H](C)O)C(C)C)[C@@H](C)O [Example 16] ({C20 diacid-γGlu}-KCNTATCATQRLAEFLRHSSPNFGAIPSSTNVGSRTY-NH2; disulfide 2-7) | 17.1 | 6.1 | 6.1 | 6.1 | 6.1 | – | 2.21 | 0.894 | 6.1 | 0.363 | –
5 | CC[C@H](C)[C@H](NC(=O)[C@H](C)NC(=O)CNC(=O)[C@H](Cc1ccccc1)NC(=O)[C@H](CC(N)=O)NC(=O)[C@@H]1CCCN1C(=O)[C@H](CO)NC(=O)[C@H](CO)NC(=O)[C@H](Cc1c[nH]cn1)NC(=O)[C@H](CCCNC(=N)N)NC(=O)[C@H](CC(C)C)NC(=O)[C@H](Cc1ccccc1)NC(=O)[C@H](Cc1c[nH]cn1)NC(=O)[C@H](C)NC(=O)[C@H](CC(C)C)NC(=O)[C@H](CCCNC(=N)N)NC(=O)[C@H](CCC(N)=O)NC(=O)[C@@H](NC(=O)[C@H](C)NC(=O)[C@@H]1CSSC[C@H](NC(=O)[C@@H](N)CCCCNC(=O)CC[C@H](NC(=O)CCCCCCCCCCCCCCCCCCC(=O)O)C(=O)O)C(=O)N[C@@H](CC(N)=O)C(=O)N[C@@H]([C@@H](C)O)C(=O)N[C@@H](C)C(=O)N[C@@H]([C@@H](C)O)C(=O)N1)[C@@H](C)O)C(=O)N1CCC[C@H]1C(=O)N[C@@H](CO)C(=O)N[C@@H](CO)C(=O)N[C@H](C(=O)N[C@@H](CC(N)=O)C(=O)N[C@H](C(=O)NCC(=O)N1CCC[C@H]1C(=O)N[C@@H](CC(N)=O)C(=O)N[C@H](C(=O)N[C@@H](Cc1ccc(O)cc1)C(N)=O)[C@@H](C)O)C(C)C)[C@@H](C)O [Example 67] (H-K([γGlu-C20 diacid])CNTATCATQRLAHFLRHSSPNFGAIPSSTNVGPNTY-NH2; disulfide 2-7) | 4.63 | 5.2 | 5.2 | 5.2 | 5.2 | – | 0.354 | 0.09 | – | – | 0.069
